According to patent US4499081A, “Peptide compounds” (Nyegaard & Co A/S, priority 1982, dated 1985):
Square brackets hold non-standard residues; d marks the D form. Peptide text beside a SMILES is read from it. pGlu = O=C1CC[C@@H](C(=O)O)N1

Assays:
myelopoietic system = experiment: injection of peptide into mice, effect on hemopoiesis; type: in vivo
granulopoiesis = experiment: activity as granulopoiesis inhibition factor
Source text: Due to the minute amounts of the natural granulopoiesis factor available, the structure of the natural substance has not been determined. It has never been obtained in crystalline or completely pure form and it is not known whether this could be achieved using material from natural sources only. In contrast, the peptides of the invention can be obtained in crystalline form suitable for pharmaceutical use and in relatively large quantities, free from contaminating peptides and proteins of natural origin.

[1] = injected into mice at a relatively low dose level
[2] = mice, injections at 10^-5 M for six successive days

Compound	production of myelopoietic cells after treatment (myelopoietic system; after treatment with the peptide, inhibitory effect reversible, normal cell population overshoots temporarily)	effect on other cell lineages deriving from the pluripotent stem cells (myelopoietic system; [1])	effect on the myelopoietic system (morphologically recognisable cells and committed stem cells) (myelopoietic system; [1])	effect on the whole hemopoietic system, including production of lymphocytes (myelopoietic system; mice, 10^-5 M for three weeks)	peripheral granulocytes (myelopoietic system; mice, concentration of 10^-7 M in the extracellular fluid, greatest in the mature cells)	pluripotent stem cells and production of erythrocytes (myelopoietic system; [2])	population of committed stem cells (myelopoietic system; [2])	granulopoiesis inhibition activity (granulopoiesis)
NCCCC[C@H](NC(=O)[C@H](CS)NC(=O)[C@H](CC(=O)O)NC(=O)[C@H](CCC(=O)O)NC(=O)[C@@H]1CCC(=O)N1)C(=O)O [Compound (1), L-pyroGlutamyl-L-glutamyl-L-aspartyl-L-cysteinyl-L-lysine] ([pGlu]EDCK-OH)	temporarily abnormally increased	not affected	selective inhibition of the myelopoietic system	strong stimulation	marked decrease	reduced	strong reduction	
NCCCC[C@H](NC(=O)[C@H](CS)NC(=O)[C@H](CC(=O)O)NC(=O)[C@H](CC(=O)O)NC(=O)[C@@H]1CCC(=O)N1)C(=O)O [pyroGlu-Asp-Asp-Cys-LysOH] ([pGlu]DDCK-OH)								inactive
